# Data reported in ChEMBL document CHEMBL4049383, “Emergence of Small-Molecule Non-RGD-Mimetic Inhibitors for RGD Integrins” (J Med Chem, 2017).
# Experiments:
# [1] = target: Integrin alpha-IIb/beta-3 (Homo sapiens, UniProt P05106+P08514)
# Description: Displacement of [3H]UR-3189 from integrin alpha2b beta3 receptor in resting human platelet
# [2] = Stability of the compound in human microsomes; assay type: ADME, Microsome; details: read-out: Stability
# Integrin alpha-IIb/beta-3, sequence (P05106 27-788 limits assumed): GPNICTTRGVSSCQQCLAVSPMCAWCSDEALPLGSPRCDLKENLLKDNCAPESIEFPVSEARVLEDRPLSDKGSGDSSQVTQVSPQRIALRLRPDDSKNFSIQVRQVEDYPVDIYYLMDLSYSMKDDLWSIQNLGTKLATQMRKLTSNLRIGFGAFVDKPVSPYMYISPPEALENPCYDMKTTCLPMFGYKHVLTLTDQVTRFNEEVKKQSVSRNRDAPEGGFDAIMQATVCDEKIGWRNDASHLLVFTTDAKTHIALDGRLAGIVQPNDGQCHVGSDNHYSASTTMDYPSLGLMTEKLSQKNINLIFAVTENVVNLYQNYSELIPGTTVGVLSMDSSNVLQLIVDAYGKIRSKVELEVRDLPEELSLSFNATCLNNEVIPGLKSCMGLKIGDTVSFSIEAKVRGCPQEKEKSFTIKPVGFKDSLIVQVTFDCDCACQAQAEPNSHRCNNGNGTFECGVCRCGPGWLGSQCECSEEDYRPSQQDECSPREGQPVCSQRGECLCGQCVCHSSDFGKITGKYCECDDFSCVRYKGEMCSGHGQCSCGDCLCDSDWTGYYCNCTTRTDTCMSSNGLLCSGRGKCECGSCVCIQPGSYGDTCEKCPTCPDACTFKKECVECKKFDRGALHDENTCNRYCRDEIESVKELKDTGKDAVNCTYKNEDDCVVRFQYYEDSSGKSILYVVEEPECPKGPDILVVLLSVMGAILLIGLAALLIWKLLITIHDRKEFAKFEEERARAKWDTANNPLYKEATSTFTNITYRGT
# Integrin alpha-IIb/beta-3, sequence (P08514 32-887 limits assumed): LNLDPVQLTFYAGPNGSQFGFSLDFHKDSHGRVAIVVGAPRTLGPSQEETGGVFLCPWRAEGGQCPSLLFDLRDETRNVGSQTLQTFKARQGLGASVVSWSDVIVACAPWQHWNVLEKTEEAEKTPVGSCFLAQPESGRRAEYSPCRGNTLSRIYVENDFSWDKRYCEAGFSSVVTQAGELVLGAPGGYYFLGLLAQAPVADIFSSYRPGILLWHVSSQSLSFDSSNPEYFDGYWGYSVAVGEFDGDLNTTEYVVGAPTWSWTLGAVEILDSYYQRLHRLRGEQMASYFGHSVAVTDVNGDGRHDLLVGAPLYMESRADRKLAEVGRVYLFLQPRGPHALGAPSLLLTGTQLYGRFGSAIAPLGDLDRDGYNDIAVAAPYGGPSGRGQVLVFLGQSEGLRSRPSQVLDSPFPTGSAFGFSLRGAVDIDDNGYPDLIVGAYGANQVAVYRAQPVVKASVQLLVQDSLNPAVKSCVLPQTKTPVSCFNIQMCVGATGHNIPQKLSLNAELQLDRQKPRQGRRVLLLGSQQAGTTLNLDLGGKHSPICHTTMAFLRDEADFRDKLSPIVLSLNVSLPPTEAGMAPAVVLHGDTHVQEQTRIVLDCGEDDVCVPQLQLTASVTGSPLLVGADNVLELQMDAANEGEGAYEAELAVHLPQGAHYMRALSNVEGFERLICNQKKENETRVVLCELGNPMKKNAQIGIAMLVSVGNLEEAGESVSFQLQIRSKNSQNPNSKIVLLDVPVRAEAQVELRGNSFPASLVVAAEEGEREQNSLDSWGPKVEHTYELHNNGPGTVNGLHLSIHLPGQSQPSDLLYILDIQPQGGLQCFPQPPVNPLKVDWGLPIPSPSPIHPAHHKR
# Integrin alpha-IIb/beta-3, sequence (P08514 891-1039 limits assumed): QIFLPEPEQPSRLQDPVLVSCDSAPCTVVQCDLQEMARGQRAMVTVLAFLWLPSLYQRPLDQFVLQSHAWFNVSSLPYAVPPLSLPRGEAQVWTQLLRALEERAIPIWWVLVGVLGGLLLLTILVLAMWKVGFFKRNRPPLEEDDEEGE
Ki [1] [nM],microsomal CLint [2] [µL/min/mg],Compound
< 1,,[H]/N=C(\N)c1ccc(C(=O)N[C@@H](Cc2ccc([N+](=O)[O-])cc2)C(=O)N2CCc3nn(CC(=O)O)cc3C2)cc1
,23.2,NCC(=O)Nc1cncc(-c2nn3c(=O)cc(N4CCNCC4)nc3s2)c1 [ZALUNFIBAN]
